In US20250129088A1, “CEREBLON E3 UBIQUITIN LIGASE INHIBITOR” (Gan & Lee Pharmaceuticals Co., Ltd., priority 2022, published 2025) one finds IC50 data, which are given here for 13 compounds.

Format in all cases: cell-based
One experiment concerns MV-4-11 cells. The experiment in a line: MV-4-11 cell proliferation inhibition, CCK-8. Conditions: Homo sapiens, MV4-11, 96 h, MV-4-11, 4 days, Table 8, positive control Ibrutinib. An outline of the steps:
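MV-4-11 cells (7,500/well) in IMDM with 10% FBS were exposed to graded compound concentrations for 4 days at 37 °C, 5% CO2. Viability was measured with CCK-8, and IC50 values were derived from inhibition rates.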

Another experiment has as its system Z138 cells. The experiment in a line: Z138 cell proliferation inhibition, CCK-8. The settings on record: Homo sapiens, Z-138, 96 h, Z138, 4 days. On the procedure: The complete medium required for Z138 cells is IMDM (ATCC, Product number: 30-2005) basal medium containing 10% horse serum. Z138 cells were seeded in a 96-well plate at a density of 10,000 cells/well, and different concentrations of the compound of the present invention and a positive control sample Ibrutinib (source: Bide Pharmaceuticals) were prepared to treat the cells. The cells were incubated in a 37° C., 5% CO2 cell incubator for 4 days. Cell viability was detected using the CCK-8 kit (Beyotime, Product number: C0040) according to the manufacturer's instructions. According to the inhibition rate, the GraphPad Prism software was used to calculate the IC50 value of each compound for 4 days, and the results are shown in Table 14.

A further experiment relates to 22RV1 cells. The experiment in a line: 22RV1 cell proliferation inhibition, CCK-8. Conditions: 22RV1, 7 days. On the procedure:
The complete medium required for 22RV1 cells is RPM11640 (ATCC, Product number: 30-2001) basal medium containing 10% fetal bovine serum. 22RV1 cells were seeded in a 96-well plate at a density of 4,000 cells/well, and the next day, different concentrations of the compound of the present invention and the positive control sample JQ1 (source: Bide Pharmaceuticals) were prepared to treat the cells, and the cells were cultured at 37° C. and 5% CO2 for 7 days in the incubator. Cell viability was detected using the CCK-8 kit (Beyotime, Product number: C0040) according to the manufacturer's instructions. According to the inhibition rate, the GraphPad Prism software was used to calculate the IC50 value of each compound for 7 days, and the results are shown in Table 4.

For a further experiment, the system named is NCI-H358 cells. The experiment in a line: NCI-H358 cell proliferation inhibition, CCK-8. The settings on record: Homo sapiens, 96 h, NCI-H358, 4 days. On the procedure: The complete medium required for NCI-H358 cells is RPMI1640 (ATCC, Product number: 30-2001) basal medium containing 10% fetal bovine serum. NCI-H358 cells were seeded in a 96-well plate at a density of 2,800 cells/well, and the next day, different concentrations of the compounds of the present invention were prepared to treat the cells, and the cells were treated for 4 days in a 37° C., 5% CO2 cell culture incubator. Cell viability was detected using a CCK-8 kit (Beyotime, Product number: C0040) according to the manufacturer's instructions. According to the inhibition rate, the GraphPad Prism software was used to calculate the IC50 value of each compound for 4 days, and the results are shown in Table 5.

For the next experiment, the system named is T-47D cells. The experiment in a line: T-47D cell proliferation inhibition, CCK-8. Conditions: Homo sapiens, T47D, 144 h, 6 days. On the procedure:
The complete medium required for T-47D cells is 1640 (ATCC, Product number: A10491-01) basal medium containing 10% fetal bovine serum. T-47D cells were seeded in a 96-well plate at a density of 3,000/well, and different concentrations of the compound of the present invention and the positive control sample ARV-471 (source: Innochem) were prepared to treat the cells. The cells were incubated at 37° C., 5% for 6 days in a CO2 cell incubator. Cell viability was detected using the CCK-8 kit (Beyotime, Product number: C0040) according to the manufacturer's instructions. According to the inhibition rate, the GraphPadPrism software was used to calculate the IC50 value of each compound for 6 days, and the results are shown in Table 17.

For a further experiment, the system named is MCF-7 cells. The experiment in a line: MCF-7 cell proliferation inhibition, CCK-8. The settings on record: Homo sapiens, MCF7, 216 h, MCF-7, 9 days. On the procedure: The complete medium required for MCF-7 cells is DMEM (gibco, Product number: 11995-065) basal medium containing 10% fetal bovine serum. MCF-7 cells were seeded in a 96-well plate at a density of 800/well, and different concentrations of the compound of the present invention and the positive control sample ARV-471 (source: Enochem) were prepared to treat the cells. The cells were incubated at 37° C., 5% 9 days in a CO2 cell incubator. Cell viability was detected using the CCK-8 kit (Beyotime, Product number: C0040) according to the manufacturer's instructions. According to the inhibition rate, GraphPadPrism software was used to calculate the IC50 value of each compound for 9 days, and the results are shown in Table 18.

As for `C=CC(=O)N1CCC[C@@H](n2nc(-c3ccc(Oc4ccccc4)cc3)c3c(N)ncnc32)C1` [Ibrutinib, reference compound], the 50% inhibitory concentration (IC50) in the experiment on MV-4-11 cells is 77 nM; with Z138 cells it was 21100 nM.

In turn, `Cc1sc2c(c1C)C(c1ccc(Cl)cc1)=N[C@@H](CC(=O)OC(C)(C)C)c1nnc(C)n1-2` [JQ1, reference compound] yielded an IC50 in the experiment on 22RV1 cells of 44 nM. That is a double-digit nanomolar value.

In the experiment with NCI-H358 cells, `COc1cc2ncnc(Nc3ccc(F)c(Cl)c3)c2cc1OCCCN1CCN(CCOCCC(=O)N2CCC3(CCc4cc5c(cc4O3)C(=O)N(C3CCC(=O)NC3=O)C5)CC2)CC1` (stereo not drawn) [PROTAC 17, 3-(1-(3-(2-(4-(3-((4-((3-chloro-4-fluorophenyl)amino)-7-methoxyquinazolin-6-yl)oxy)propyl)piperazin-1-yl)ethoxy)propionyl)-8′-oxo-3′,4′,6′,8′-tetrahydro-7′H-spiro[piperidine-4,2′-pyrano[2,3-f]isoindole]-7′-yl)piperidine-2,6-dione] returned a concentration for half-maximal inhibition (IC50) of 16800 nM.

Regarding `COc1cc2ncnc(Nc3ccc(F)c(Cl)c3)c2cc1OCCCN1CCN(CCOCCC(=O)N2CCC3(CC2)COc2cc4c(cc2O3)CN(C2CCC(=O)NC2=O)C4=O)CC1` (stereo not drawn) [PROTAC 18, 3-(1-(3-(2-(4-(3-((4-((3-chloro-4-fluorophenyl)amino)-7-methoxyquinazolin-6-yl)oxy)propyl)piperazin-1-yl)ethoxy)propionyl)-6′-oxo-6′,8′-dihydro-3′H,7′H-spiro[piperidine-4, 2′-[1,4]dioxino[2,3-f]isoindol]-7′-yl)piperidine-2,6-dione], in the experiment with NCI-H358 cells, inhibition was half-maximal at 42600 nM (IC50).

As for `COc1cc2ncnc(Nc3ccc(F)c(Cl)c3)c2cc1OCCCN1CCN(CCOCCC(=O)N2CCC3(CCc4cc5c(cc4O3)C(=O)N(C3CCC(=O)NC3=O)C5=O)CC2)CC1` (stereo not drawn) [PROTAC 21, 1-(3-(2-(4-(3-((4-((3-chloro-4-fluorophenyl)amino)-7-methoxyquinazolin-6-yl)oxy)propyl)piperazin-1-yl)ethoxy)propionyl)-7′-(2,6-dioxopiperidin-3-yl)-3′,4′-dihydro-6′H-spiro[piperidine-4,2′-pyrano[2,3-f]isoindole]-6′,8′(7′H)-dione], the midpoint of inhibition in the experiment on NCI-H358 cells, the IC50, lay at 23200 nM.

Regarding `Nc1ncnc2c1c(-c1ccc(Oc3ccccc3)cc1)nn2[C@@H]1CCCN(CCOCCC(=O)N2CCC3(CC2)COc2cc4c(cc2C3)C(=O)N(C2CCC(=O)NC2=O)C4=O)C1` (stereo partly drawn) [PROTAC 34, 1-(3-(2-((R)-3-(4-amino-3-(4-phenoxyphenyl)-1H-pyrazolo[3,4-d]pyrimidin-1-yl)piperidin-1-yl)ethoxy)propionyl)-7′-(2,6-dioxopiperidin-3-yl)-2′H-spiro[piperidine-4,3′-pyrano[2,3-f]isoindole]-6′,8′(4′H,7′H)-dione], in the experiment with Z138 cells, the IC50 is 13900 nM.

Turning to `Cc1sc2c(c1C)C(c1ccc(Cl)cc1)=N[C@@H](CC(=O)N1CC3(CCc4cc5c(cc4O3)CN(C3CCC(=O)NC3=O)C5=O)C1)c1nnc(C)n1-2` (stereo partly drawn) [PROTAC 46, 3-(1-(2-((S)-4-(4-chlorophenyl)-2,3,9-trimethyl-6H-thieno[3,2-f][1,2,4]triazolo[4,3-a][1,4]diazepine-6-yl)acetyl)-6′-oxo-3′,4′,6′,8′-tetrahydro-7′H-spiro[azetidine-3,2′-pyrano[2,3-f]isoindole]-7′-yl)piperidine-2,6-dione], the concentration for half-maximal inhibition (IC50) came out at 5.4 nM in the experiment on MV-4-11 cells and 226 nM in the experiment with 22RV1 cells (Homo sapiens, 168 h).

Take `Cc1sc2c(c1C)C(c1ccc(Cl)cc1)=N[C@@H](CC(=O)N1CCC3(CCc4cc5c(cc4O3)CN(C3CCC(=O)NC3=O)C5=O)CC1)c1nnc(C)n1-2` (stereo partly drawn) [PROTAC 47, 3-(1-(2-((S)-4-(4-chlorophenyl)-2,3,9-trimethyl-6H-thieno[3,2-f][1,2,4]triazolo[4,3-a][1,4]diazepine-6-yl)acetyl)-6′-oxo-3′,4′,6′,8′-tetrahydro-7′H-spiro[piperidine-4,2′-pyrano[2,3-f]isoindole]-7′-yl)piperidine-2,6-dione]: the half-maximal inhibitory concentration (IC50) in the experiment on MV-4-11 cells amounted to 17 nM; in the experiment on 22RV1 cells (Homo sapiens, 168 h), 103 nM.

`Cc1sc2c(c1C)C(c1ccc(Cl)cc1)=N[C@@H](CC(=O)N1CCC3(CCc4cc5c(cc4O3)C(=O)N(C3CCC(=O)NC3=O)C5)CC1)c1nnc(C)n1-2` (stereo partly drawn) [PROTAC 48, 3-(1-(2-((S)-4-(4-chlorophenyl)-2,3,9-trimethyl-6H-thieno[3,2-f][1,2,4]triazolo[4,3-a][1,4]diazepine-6-yl)acetyl)-8′-oxo-3′,4′,6′,8′-tetrahydro-7′H-spiro[piperidine-4,2′-pyrano[2,3-f]isoindole]-7′-yl)piperidine-2,6-dione]: the half-inhibitory concentration (IC50) with MV-4-11 cells came out at 0.96 nM; in the experiment on 22RV1 cells (Homo sapiens, 168 h), 24 nM.

`Cc1sc2c(c1C)C(c1ccc(Cl)cc1)=N[C@@H](CC(=O)N1CCC3(CC1)COc1cc4c(cc1O3)CN(C1CCC(=O)NC1=O)C4=O)c1nnc(C)n1-2` (stereo partly drawn) [PROTAC 49, 3-(1-(2-((S)-4-(4-chlorophenyl)-2,3,9-trimethyl-6H-thieno[3,2-f][1,2,4]triazolo[4,3-a][1,4]diazepine-6-yl)acetyl)-6′-oxo-6′,8′-dihydro-3′H,7′H-spiro[piperidin-4,2′-[1,4]dioxino[2,3-f]isoindole]-7′-yl)piperidine-2,6-dione]: the IC50 was 8.2 nM in the experiment with MV-4-11 cells and 141 nM in the experiment on 22RV1 cells (Homo sapiens, 168 h).

Regarding `Cc1sc2c(c1C)C(c1ccc(Cl)cc1)=N[C@@H](CC(=O)N1CCC3(CCc4cc5c(cc4O3)C(=O)N(C3CCC(=O)NC3=O)C5=O)CC1)c1nnc(C)n1-2` (stereo partly drawn) [PROTAC 50, 1-(2-((S)-4-(4-chlorophenyl)-2,3,9-trimethyl-6H-thieno[3,2-f][1,2,4]triazole[4,3-a][1,4]diazepine-6-yl)acetyl)-7′-(2,6-dioxopiperidin-3-yl)-3′,4′-dihydro-6′H-spiro[piperidine-4,2′-pyrano[2,3-f]isoindole]-6′,8′(7′H)-dione], the concentration for half-maximal inhibition (IC50) in the experiment on MV-4-11 cells was determined as 6.9 nM; in the experiment on 22RV1 cells (Homo sapiens, 168 h), 15 nM.

Consider `Cc1sc2c(c1C)C(c1ccc(Cl)cc1)=N[C@@H](CC(=O)N1CC3(CCc4cc5c(cc4O3)C(=O)N(C3CCC(=O)NC3=O)C5=O)C1)c1nnc(C)n1-2` (stereo partly drawn) [PROTAC 51, 1-(2-((S)-4-(4-chlorophenyl)-2,3,9-trimethyl-6H-thieno[3,2-f][1,2,4]triazole[4,3-a][1,4]diazepine-6-yl)acetyl)-7′-(2,6-dioxopiperidin-3-yl)-3′,4′-dihydro-6′H-spiro[azetidine-3,2′-pyrano[2,3-f]isoindole]-6′,8′(7′H)-dione], for which the concentration for half-maximal inhibition (IC50) in the experiment with MV-4-11 cells was found to be 20 nM; in the experiment on 22RV1 cells (Homo sapiens, 168 h), 123 nM.

On to `O=C1CCC(N2Cc3ccc4c(c3C2=O)OCC2(CCN(C3CCC5(CC3)CCN(c3ccc([C@@H]6c7ccc(O)cc7CC[C@@H]6c6ccccc6)cc3)CC5)CC2)C4)C(=O)N1` (stereo partly drawn) [PROTAC 59, 3-(1-(3-(4-((1R,2S)-6-hydroxy-2-phenyl-1,2,3,4-tetrahydronaphthalen-1-yl)phenyl)-3-azaspiro[5.5]undec-9-yl)-9′-oxo-7′,9′-dihydro-2′H-spiro[piperidin-4,3′-pyrano[2,3-f]isoindole]-8′(4′H)-yl)piperidine-2,6-dione], for which the figures for the IC50 in the experiment with T-47D cells and in the experiment on MCF-7 cells were 5.2 nM and 130 nM, respectively.
